Reference: PubChem BioAssay AID1159559 (GlaxoSmithKline (GSK), 2015)
Calls of active or inactive are those of the source.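 The calls were made as follows: active = compounds whose IC50 against parasite growth in infected mouse cells is below 50000 nM; inactive = the rest.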

Each compound was assayed on T. cruzi Tulahuen in NIH-3T3, beta-gal fluorescence, 4 d (assay: T. cruzi intracellular growth inhibition, cell-based (AID 1159559)).

SMILES	IC50
Oc1c(-c2n[nH]c(Cc3ccc(F)cc3)n2)ncc2cccnc12	160 nM
Cn1cncc1CN1CCC2(CC1)COC(Cc1ccccc1)C2 (stereo unspecified)	320 nM
Cc1ccc(S(C)(=O)=O)cc1Nc1nccc(-c2sc(N)nc2-c2ccccc2)n1	130 nM
CCN(CC)S(=O)(=O)c1ccc(OC)c(NC(=O)c2ccc([N+](=O)[O-])s2)c1	250 nM
O=C(Nc1nc(-c2ccccn2)cs1)N1C[C@H]2C[C@@]2(c2ccccc2)C1	500 nM
N#Cc1ccc(C(=O)Nc2cccc(-c3cccc(CN4CCC(O)CC4)c3)c2)cc1	5000 nM
c1ccc(CNc2cccc3ccncc23)cc1	6300 nM
CCOc1cc(NCCCN2CCN(C)CC2)c2ncccc2c1	1600 nM
COc1ccc(Nc2nccc(N(C)c3n[nH]c4c(F)cccc34)n2)cc1S(C)(=O)=O	2000 nM
O=C1CN(C(=O)c2cccc(Nc3ncc(-c4ccc5c(c4)OCO5)cn3)c2)CCN1	1600 nM
COc1ccc2ncc(=O)n(CCN3CCOC(CNCc4ccc(C(F)(F)F)cc4F)C3)c2n1 (stereo unspecified)	400 nM
NC(=O)c1cc(NC(=O)c2ccccc2COc2ccccc2)ccc1Cl	40000 nM
COc1ccc(-c2cc(C)no2)cc1S(=O)(=O)Nc1ccc(C)c(C)c1	5000 nM
Cc1nc(-c2ccc3c(c2)OCO3)sc1C(=O)NCc1ccc2c(c1)OCO2	3200 nM
Cc1cc2nc(CN(C)Cc3ncccc3C)[nH]c2cc1C	500 nM
CCCn1c(NC(=O)Cc2ccc(Cl)cc2)nc2ccccc21	630 nM
O=c1ccn(-c2ccc([N+](=O)[O-])cc2Cl)c2ccc(F)cc12	1600 nM
CNc1cc(C)nc(C2CN(C(=O)c3n[nH]c4ccccc34)CCO2)c1 (stereo unspecified)	1300 nM
O=C(Cc1ccccc1)Nc1ccccc1C(=O)Nc1nccs1	40000 nM

SMILES	IC50
COc1ccc(C(=O)Nc2ccc(NC(=O)CO)cc2)cc1	> 50000 nM (inactive)
Cc1cccc(NS(=O)(=O)c2ccc3c(c2)C(=O)c2cc(S(=O)(=O)Nc4cccc(C)c4C)ccc2-3)c1C	400 nM
O=C(CSc1ccc(-c2ccccn2)nn1)Nc1ccc(Cl)cc1	2500 nM
NC(=O)c1ncccc1Nc1nc(NC2CCC(O)CC2)ncc1Br (stereo unspecified)	1600 nM
CCC(=O)Nc1ccc(C(=O)Nc2ccccc2-c2ccccc2)cc1	500 nM
O=S1N=C(NCCCN(Cc2ccc(F)cc2)c2ccccn2)C(NCc2ccncc2)=N1 (stereo unspecified)	32000 nM
Cc1ccc(CNC2CCN(C[C@@H]3Cn4c(=O)ccc5ccc(=O)n3c54)CC2)cc1F	1300 nM
COc1ccc(C)cc1-c1csc(NC(=O)C(C)n2ccnc2)n1 (stereo unspecified)	63 nM
O=C(NCCc1ccccc1Cl)c1cccn1-c1cccnc1	400 nM
c1ccc2c(CCOc3nccnc3-c3ccncc3)c[nH]c2c1	130 nM
Cc1ccc(NC(=O)c2ccnc(N3CCCC3)c2)cc1-c1ccsc1C(N)=O	13000 nM
Cc1[nH]nc(C(F)(F)F)c1NC(=O)CCn1cc(Cl)c([N+](=O)[O-])n1	7900 nM
Cc1c(C(C)NC(=O)Nc2cccc(Cl)c2)sc2ncnn12 (stereo unspecified)	130 nM
N#Cc1cc([N+](=O)[O-])ccc1NC1CCCCCC1	2500 nM
Cn1nc([N+](=O)[O-])nc1Oc1ccc(C(=O)c2ccccc2)cc1	250 nM
O=C(c1ccc(Cl)cc1)c1ccc(OC(=O)N2CCOCC2)cc1	13000 nM
Cc1nc2c(-c3nc(-c4ccc(N)cc4)n[nH]3)cccn2c1C	6300 nM
Clc1ccc(CN2CCN(C3=NCCN3)CC2)cc1Cl	1300 nM
CCOc1ccc(OCC(=O)N2c3ccccc3CC2C(=O)NC)cc1 (stereo unspecified)	> 50000 nM (inactive)

SMILES	IC50
Cc1cc(N(C)C)nc2ccc(Cc3cnc(N)nc3N)cc12	1300 nM
CN(C)S(=O)(=O)c1ccc(Cl)c(C(=O)Nc2nc(-c3ccccn3)cs2)c1	1600 nM
O=C(CC1(O)C(=O)N(Cc2ccccc2)c2ccc(Br)cc21)c1cccnc1 (stereo unspecified)	5000 nM
CS(=O)(=O)c1ccc(Nc2nccc(-c3cnn4ncccc34)n2)cc1	2000 nM
NCc1csc(Nc2cc(Oc3ccccc3)ncn2)n1	32000 nM
C[C@@H](Oc1cc(-n2cnc3cc(N)ccc32)sc1C(N)=O)c1ccccc1Cl	1300 nM
Oc1cccnc1-c1n[nH]c(Cc2ccccc2)n1	6300 nM
COc1cc2c(cc1OC)[C@H]1[C@@H](C)c3ccc(OC)c(OC)c3CN1CC2	25000 nM
COC(=O)c1ccc(-c2cnc3ccc(NCc4ccccn4)nn23)cc1	7900 nM
Cc1cc(C)n(-c2nc(NC(C)(C)C)nc(N3CCOCC3)n2)n1	5000 nM
COc1ccccc1C(=O)Nc1nnc(-c2ccc3c(c2)OCO3)s1	2500 nM
COc1ccc(-c2cnc(C)o2)cc1S(=O)(=O)Nc1ccc(C)cc1C	2500 nM
CC(C)(C)C(Cn1ccnc1)NC(=O)c1ccc2nc(C3CC3)oc2c1 (stereo unspecified)	100 nM
Cc1ccccc1CNc1cc(C2CC2)nc(-c2nccn2C)n1	790 nM
Cc1nn(-c2nc(N)nc(-c3ccccn3)n2)c(C)c1Cc1ccccc1	2500 nM
COc1ccccc1CNc1cc(C2CC2)nc(-c2nccn2C)n1	790 nM
Nc1nonc1-c1nc2cncc(C(=O)N3CC[C@H](N)C3)c2n1CC1CC1	> 50000 nM (inactive)
O=c1[nH]ccc2ccc(-c3ccncc3)cc12	200 nM
